Source: US20210205253A1, “Use Of Stearic Acid For Preventing Or Treating Pulmonary Fibrosis” (THE ASAN FOUNDATION, priority 2018, published 2021)

Tests used:
pulmonary fibroblasts = assay: Collagen 1 and α-SMA immunoblotting in pulmonary fibroblasts; assay type: cell-based, human; conditions: stearic acid 40 uM/mL
Experimental: After epithelial cells and fibroblasts were aliquoted into 6-well plates at 2×10^4 cells/well and a stabilization time was imparted for 24 hours, and 15 hours after deficiency, cells were treated with stearic acid (40 uM/mL), TGF-β (5 ng/mL), and stearic acid (40 uM/mL)+TGF-β (5 ng/mL) in this order. After the cells were cultured in an incubator for 24 hours after the treatment, the next-step experiment was performed. After 24 hours of cell stimulation by the method of Example 1-3, the cells were washed twice with iced phosphate buffer saline (PBS), a protein lysate solution was put thereinto, the cells were scraped out and collected in a 1.5 ml EP tube, and then the cells were lysed in a grinder for 30 seconds. Next, centrifugation was performed at a speed of 14,000 rpm at 4° C. for 20 minutes, and the protein was quantified using the BCA analysis method. Thereafter, the protein sample was boiled at 95° C. for 10 minutes for the same amount of protein, and then the expression levels of collagen type 1 and α-SMA were measured by immunoblotting. After the expression level of the protein was confirmed, a significance test between samples was performed using a statistical program. […] The collagen 1/actin or α-SMA/actin indicated on the y-axis of FIGS. 4A and 4B means a value obtained by correcting the protein amount of collagen 1 or α-SMA with the amount of actin, which is an intracellular control protein. […] Further, referring to the test method of obtaining the results in FIG. 4, after pulmonary fibroblasts were treated with palmitic acid at various concentrations (10, 20, and 40 μM/mL), the levels of collagen 1 (collagen 1/actin; FIG. 6A) and α-SMA (α-SMA/actin; FIG. 6B), which are intracellular fibrosis markers, were measured, and shown as relative values to the control (CTL; medium only). […] 40 uM/mL stearic acid, 10 uM/mL palmitic acid, and 5 ng/mL TGF-β were used in the experiment, respectively. […] In addition, referring to the test method of obtaining the results in FIG. 7, the experiment was performed using oleic acid (OA) instead of palmitic acid, and the levels of collagen 1 (collagen 1/actin; FIG. 8A) and α-SMA (α-SMA/actin; FIG. 8B) were measured and shown as relative values to the control (CTL; medium only). 40 uM/mL stearic acid, 40 uM/mL oleic acid, and 5 ng/mL TGF-β were used in the experiment, respectively.

[1] = tested on: Beas-2B human pulmonary epithelial cell line; assay: E-cadherin expression in epithelial cells; assay type: cell-based; conditions: 40 μM stearic acid, 24 h
Experimental: The present inventors examined the expression level of E-cadherin after treating Beas-2B, which is a human pulmonary epithelial cell line, with TGF-β1 and/or 40 μM stearic acid for 24 hours in order to examine the effects of stearic acid on epithelial cells. As a result, as illustrated in FIGS. 11A and 11B, it was confirmed that when Beas-2B was treated with 40 μM stearic acid, the expression of E-cadherin reduced by TGF-β1 was restored in Beas-2B cells. […] It was confirmed in FIG. 3B that when epithelial cells are treated with TGF-β1, the proliferation of epithelial cells was inhibited and the proliferation of epithelial cells was restored by stearic acid.

[2] = tested on: human pulmonary fibroblasts (MRC-5); assay: Cell viability (MTT) of human pulmonary fibroblasts; assay type: cell-based; conditions: stearic acid 40 uM/mL + TGF-β 5 ng/mL, 24 h, versus TGF-β alone
Experimental: After epithelial cells and fibroblasts were aliquoted into 6-well plates at 2×10^4 cells/well and a stabilization time was imparted for 24 hours, and 15 hours after deficiency, cells were treated with stearic acid (40 uM/mL), TGF-β (5 ng/mL), and stearic acid (40 uM/mL)+TGF-β (5 ng/mL) in this order. After the cells were cultured in an incubator for 24 hours after the treatment, the next-step experiment was performed.
After a 24-hour cell stimulation by the method in Example 1-3 was completed, the medium of epithelial cells and fibroblasts was replaced with a general culture medium, 10 μl of an MTT solution (20 mg/ml) was further added, and then the outside of the plate was wrapped with aluminum foil and cells were cultured in an incubator for 2 hours. […] After 2 hours, cell activation was measured at an absorbance value of 595 nm using an ELISA reader.
For this purpose, after each culture (BEGM(Lonza) in the case of MRC-5, and BMEM (ATCC) in the case of BEAS-2B) of human pulmonary fibroblasts (MRC-5; ATCC® CCL171™) and human pulmonary epithelial cells (BEAS-2B; ATCC® CRL9609™) was treated with stearic acid (40 uM/mL), TGF-β (5 ng/mL; Sigma), or stearic acid (40 uM/mL)+TGF-β (5 ng/mL) by the method described in Example 1-3 for 24 hours, cell viability was measured by the method in Example 1-4. […]

[3] = increase by oleic acid 40 uM/mL
[4] = increase by palmitic acid 10 uM/mL

CCCCCCCCCCCCCCCCCC(=O)O [stearic acid]
collagen 1/actin (pulmonary fibroblasts; increase by TGF-β 5 ng/mL): significantly inhibited | α-SMA/actin (pulmonary fibroblasts; increase by TGF-β 5 ng/mL): significantly inhibited | collagen 1/actin (pulmonary fibroblasts; [3]): significantly inhibited | α-SMA/actin (pulmonary fibroblasts; [3]): significantly inhibited | collagen 1/actin (pulmonary fibroblasts; [4]): significantly inhibited | α-SMA/actin (pulmonary fibroblasts; [4]): significantly inhibited | expression of E-cadherin reduced by TGF-β1 [1]: restored | cell viability of pulmonary fibroblasts [2]: cell viability decreased
